Experiment [1] has as its target Glucose-6-phosphate 1-dehydrogenase (Homo sapiens, UniProt P11413). The experiment in a line: human G6PD enzyme inhibitors, dose response, selectivity assay for P. falciparum G6PD inhibitor project, biochemical, fluorescence (AID 504792). The class given is functional.
Another experiment concerns HEK293. The experiment in a line: SAR Analysis of small molecule inhibitors of T-cell specific antigen receptor-induced NF-kB activation in a HEK-293T cell line using a luminescence assay - Set 2. [Related pubchem assays (depositor defined):AID435003, AID435012, AID489026]. It counts as functional, cell-based. As to conditions: Homo sapiens.
The next experiment has as its target T1, Exodeoxyribonuclease V (Escherichia coli (strain K12), UniProt P04993+P07648+P08394).
T1 sequence (P04993 whole entry): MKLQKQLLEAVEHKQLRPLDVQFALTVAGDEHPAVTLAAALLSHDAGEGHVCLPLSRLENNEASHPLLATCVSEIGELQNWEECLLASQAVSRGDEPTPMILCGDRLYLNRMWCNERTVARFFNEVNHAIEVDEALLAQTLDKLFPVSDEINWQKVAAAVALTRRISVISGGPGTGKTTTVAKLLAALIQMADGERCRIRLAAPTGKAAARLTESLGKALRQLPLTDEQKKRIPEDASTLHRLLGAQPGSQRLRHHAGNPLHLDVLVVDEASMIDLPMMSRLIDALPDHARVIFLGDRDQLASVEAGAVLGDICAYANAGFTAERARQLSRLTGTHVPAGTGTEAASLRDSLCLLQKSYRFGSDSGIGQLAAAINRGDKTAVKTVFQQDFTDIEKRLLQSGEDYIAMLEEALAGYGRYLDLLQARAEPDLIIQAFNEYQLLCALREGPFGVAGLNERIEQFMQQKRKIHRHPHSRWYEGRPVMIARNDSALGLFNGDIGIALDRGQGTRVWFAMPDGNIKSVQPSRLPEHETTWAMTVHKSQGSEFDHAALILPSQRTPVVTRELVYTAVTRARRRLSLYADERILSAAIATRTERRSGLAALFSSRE
T1 sequence (P07648 whole entry): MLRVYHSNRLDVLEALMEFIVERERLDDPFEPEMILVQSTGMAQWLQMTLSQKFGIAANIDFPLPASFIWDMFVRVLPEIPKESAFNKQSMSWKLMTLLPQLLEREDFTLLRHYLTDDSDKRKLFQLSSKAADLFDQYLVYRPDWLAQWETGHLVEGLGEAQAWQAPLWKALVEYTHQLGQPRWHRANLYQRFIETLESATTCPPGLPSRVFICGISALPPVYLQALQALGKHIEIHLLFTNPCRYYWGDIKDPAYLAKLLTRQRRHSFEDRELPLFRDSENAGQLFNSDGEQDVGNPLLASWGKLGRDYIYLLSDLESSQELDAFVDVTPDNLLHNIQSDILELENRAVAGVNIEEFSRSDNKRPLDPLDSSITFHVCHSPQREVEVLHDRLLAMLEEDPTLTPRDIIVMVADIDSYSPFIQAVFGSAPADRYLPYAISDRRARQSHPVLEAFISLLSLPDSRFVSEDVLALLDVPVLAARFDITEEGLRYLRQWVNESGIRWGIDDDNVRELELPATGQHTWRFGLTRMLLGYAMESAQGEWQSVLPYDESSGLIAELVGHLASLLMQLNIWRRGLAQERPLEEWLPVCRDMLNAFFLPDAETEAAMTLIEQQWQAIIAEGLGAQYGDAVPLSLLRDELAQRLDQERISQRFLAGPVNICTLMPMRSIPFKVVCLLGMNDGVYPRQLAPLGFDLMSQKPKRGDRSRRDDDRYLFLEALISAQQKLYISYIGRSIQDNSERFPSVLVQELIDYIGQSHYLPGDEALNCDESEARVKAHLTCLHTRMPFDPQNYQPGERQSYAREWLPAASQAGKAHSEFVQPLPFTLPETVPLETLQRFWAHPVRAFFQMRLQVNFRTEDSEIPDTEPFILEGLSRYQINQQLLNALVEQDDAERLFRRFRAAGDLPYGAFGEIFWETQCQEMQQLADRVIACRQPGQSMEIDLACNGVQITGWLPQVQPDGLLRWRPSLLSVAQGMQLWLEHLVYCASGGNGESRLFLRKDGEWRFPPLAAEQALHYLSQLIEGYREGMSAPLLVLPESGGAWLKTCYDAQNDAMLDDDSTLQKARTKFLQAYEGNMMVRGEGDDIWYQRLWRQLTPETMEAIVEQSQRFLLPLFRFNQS
T1 sequence (P08394 whole entry): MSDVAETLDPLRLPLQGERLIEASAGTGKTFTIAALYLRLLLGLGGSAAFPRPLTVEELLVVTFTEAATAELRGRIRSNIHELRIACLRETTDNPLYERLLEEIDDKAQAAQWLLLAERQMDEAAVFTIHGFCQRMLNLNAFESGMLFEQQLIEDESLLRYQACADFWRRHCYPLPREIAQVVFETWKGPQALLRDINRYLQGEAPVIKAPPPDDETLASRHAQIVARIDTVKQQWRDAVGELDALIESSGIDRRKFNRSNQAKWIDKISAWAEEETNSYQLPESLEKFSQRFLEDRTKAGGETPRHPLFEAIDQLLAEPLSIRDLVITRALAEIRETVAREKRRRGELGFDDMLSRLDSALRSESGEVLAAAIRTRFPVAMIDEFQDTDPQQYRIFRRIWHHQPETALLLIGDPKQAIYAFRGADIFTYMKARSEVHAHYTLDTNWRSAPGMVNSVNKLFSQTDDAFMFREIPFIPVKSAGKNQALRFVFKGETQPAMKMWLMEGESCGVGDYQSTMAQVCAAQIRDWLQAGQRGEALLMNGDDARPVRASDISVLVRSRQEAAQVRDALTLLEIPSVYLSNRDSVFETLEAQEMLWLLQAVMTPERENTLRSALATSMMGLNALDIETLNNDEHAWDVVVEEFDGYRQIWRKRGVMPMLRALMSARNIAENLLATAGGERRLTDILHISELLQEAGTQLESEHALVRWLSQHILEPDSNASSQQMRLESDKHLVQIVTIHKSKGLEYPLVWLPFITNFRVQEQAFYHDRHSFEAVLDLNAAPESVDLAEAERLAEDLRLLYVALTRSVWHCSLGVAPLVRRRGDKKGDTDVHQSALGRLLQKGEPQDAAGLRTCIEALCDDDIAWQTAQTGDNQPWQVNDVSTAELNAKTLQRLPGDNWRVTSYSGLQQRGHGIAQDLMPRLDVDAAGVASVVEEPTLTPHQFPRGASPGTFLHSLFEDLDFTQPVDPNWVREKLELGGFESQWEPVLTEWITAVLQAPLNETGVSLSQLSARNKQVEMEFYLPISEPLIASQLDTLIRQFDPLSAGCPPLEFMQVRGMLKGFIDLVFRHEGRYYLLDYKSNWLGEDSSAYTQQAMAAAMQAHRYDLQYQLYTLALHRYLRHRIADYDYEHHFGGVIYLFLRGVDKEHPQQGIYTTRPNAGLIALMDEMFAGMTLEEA
The experiment in a line: E. coli RecBCD inhibitors, dose response, counter-screen for AddAB inhibitor project, absorbance, V66 E. coli, mutant T4 phage (AID 492957). The class given is functional, cell-based, Escherichia coli str. K-12 substr. MG1655. (In general: Counterscreens check selectivity or assay interference.)

A short description of experiment [2]: HepG2 cell cytotoxicity, dose response, cytotoxicity control for non-replicating M. tuberculosis project (AID 489018). The class given is functional. As to conditions: Mycobacterium tuberculosis.

Broadly, the IC50 is the concentration that gives 50% inhibition. The CC50 is the concentration that lowers cell viability or growth by half.

Activity calls are given as the source filed them. Where only a bound is given, the exact number is not on record here.

Chain of Glucose-6-phosphate 1-dehydrogenase (P11413 whole entry): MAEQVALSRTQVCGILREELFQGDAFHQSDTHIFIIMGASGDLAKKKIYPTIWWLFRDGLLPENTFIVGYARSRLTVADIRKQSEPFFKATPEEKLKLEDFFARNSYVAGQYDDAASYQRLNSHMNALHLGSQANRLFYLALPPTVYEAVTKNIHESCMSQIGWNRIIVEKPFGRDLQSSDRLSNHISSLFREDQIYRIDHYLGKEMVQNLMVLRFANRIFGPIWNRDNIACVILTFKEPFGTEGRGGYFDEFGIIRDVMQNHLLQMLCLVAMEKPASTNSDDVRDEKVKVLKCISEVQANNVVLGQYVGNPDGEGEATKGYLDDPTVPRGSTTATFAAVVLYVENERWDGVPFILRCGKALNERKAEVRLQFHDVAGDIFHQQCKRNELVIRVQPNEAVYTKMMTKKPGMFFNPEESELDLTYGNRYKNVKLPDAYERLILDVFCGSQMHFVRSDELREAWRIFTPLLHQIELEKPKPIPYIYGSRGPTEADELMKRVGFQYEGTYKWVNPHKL

`COc1ccc2c(c1)CCC(/C=N/c1ccc3c(c1)OCO3)=C2O`: in experiment [1], the IC50 was > 80 µM (inactive).

On to `CC(=O)NC(c1ccc2ccccc2c1)c1ccc2cccnc2c1O` (centres undefined), for which the results for the IC50 with HEK293 and at Exodeoxyribonuclease V were 1.88 µM (active) and > 118 µM (inactive), respectively.

Regarding `CCOC(=O)C1=C(c2ccccc2)N=C(N)NC1c1ccc(OCc2ccc(Cl)cc2)c(OC)c1` (centres undefined), the CC50 in experiment [2] was 13.1 µM (active).

The values above are taken from ChEMBL document CHEMBL1201862, “PubChem BioAssay data set” (2004).
